Patent US4990613A, “(1R,5S,6S)-2-[(6,7-dih ydro-5H-pyrazolo[1,2-a][1,2,4]triazolium-6-yl)]thio-6-[R-1-hydroxyethyl]- 1-methyl-carbapenem-3-carboxylate and intermediate therefor” (Lederle (Japan), Ltd., priority 1987, dated 1991)

System: Swine Kidney Dehydropeptidase-I (DHP-I)
Experiment: Stability of test compounds against DHP-I by HPLC
Type: in vitro ADME
Method: The swine kidney (8 kg) was homogenized and an enzyme protein was allowed to precipitate. After a connective lipid was removed with acetone, the resultant material was made soluble by treatment with butanol and purified in the order by the ammonium sulfate fraction method, thereby producing DPH-I enzyme from a 75% ammonium sulfate fraction.
The DHP-I enzyme was then adjusted to give an enzyme concentration of 25 mg/10 ml (phosphate buffer, pH 7.1), and divided into 1 ml portions. The portions were frozen and stored at -40° C. or less until use.
As a test compound was used the compound (15) obtained in Example 6 that follows.
The test compounds was adjusted in situ to give the concentration of […] with a 50 mM sodium phosphate buffer solution (pH=7.1).
As control compounds were employed glycyl dehydrophenylalanine (Gl-dh-Ph) and imipenem, and they were adjusted in situ each to give the concentration of 177 μM with the same sodium phosphate buffer solution.
The test compound according to the present invention and the control compounds have been treated in substantially the same manner as (1) above. The incubation, however, was conducted at 37° C. for 4.5 hours or for 24 hours. A degree of the hydrolysis of the compounds each after the test periods of time was measured by the HPLC method.

**Q.** `C[C@@H](O)[C@H]1C(=O)N2C(C(=O)O)=C(SCCN=CN)C[C@H]12` [Imipenem] was tested. Which “Degree of hydrolysis by DHP-I” value (37° C. 4.5 hours, substrate concentration 100 μM, HPLC) did it give?
**A.** 77.6 µM

**Q.** What about the “Degree of hydrolysis by DHP-I (in words)” value (after 24 hours at 37° C., footnote * of Table 3) of the same compound?
**A.** imipenem has been decomposed and nothing remained was detected
